In patent US20040248887A1, “Inhibitors of cathepsin S” (IRM LLC, priority 2003, published 2004):
pKi: −log10 of the molar value.

Molecular target: Cathepsin S (Homo sapiens, UniProt P25774)
Assay: Cathepsin S inhibition, fluorogenic peptide substrate kinetic assay
Format: biochemical
Settings: Table II; Cathepsin S inhibition constant, pH5.5; read-out: Ki Cat. S
Summary of the method: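 Reactions were started with 50 μM (final) acetyl-His-Pro-Val-Lys-aminocarbamoylcoumarin, and hydrolysis was followed by fluorescence (ex 380/em 450 nm). Apparent inhibition constants from enzyme progress curves were converted to Ki for competitive inhibitors using substrate concentration and Km.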

Sequence of Cathepsin S (P25774 115-331, species assumed): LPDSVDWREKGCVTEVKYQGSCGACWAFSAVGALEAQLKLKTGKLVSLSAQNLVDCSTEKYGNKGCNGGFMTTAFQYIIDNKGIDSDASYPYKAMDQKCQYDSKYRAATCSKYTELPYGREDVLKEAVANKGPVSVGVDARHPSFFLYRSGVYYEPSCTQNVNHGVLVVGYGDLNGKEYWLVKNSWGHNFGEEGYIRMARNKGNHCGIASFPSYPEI

Compound	pKi
(S)-3-Cyclohexyl-N-[2-(5-fluoro-2,3-dihydro-indol-1-yl)-ethyl]-2-(5-methyl-1-phenyl-1H-pyrazole-4-sulfonylamino)-propionamide [Compound 222]	> 6.00
C[C@@H](CN1c2ccc(F)cc2CC1(C)C)NC(=O)[C@H](CC1CCCCC1)NC(=O)C1CCOCC1 [Compound 139, Tetrahydropyran-4-carboxylic acid {2-cyclohexyl-1-(S)-[2-(5-fluoro-2,2-dimethyl-2,3-dihydro-indol-1-yl)-1-(S)-methyl-ethylcarbamoyl]-ethyl}-amide]	> 7.00
C[C@@H](CNc1cccc(S(C)(=O)=O)c1)NC(=O)[C@H](CC(C)(C)C)NC(=O)c1ccc(-c2cccc(F)c2)o1 [Compound 130, 5-(3-Fluoro-phenyl)-furan-2-carboxylic acid {1-(S)-[2-(3-methanesulfonyl-phenylamino)-1-(S)-methyl-ethylcarbamoyl]-3,3-dimethyl-butyl}-amide]	> 7.00
C[C@@H](CNc1cccc(C(N)=O)c1)NC(=O)[C@H](CC1CCCCC1)NC(=O)c1ccc(-c2cccc(F)c2)o1 [Compound 98, 5-(3-Fluoro-phenyl)-furan-2-carboxylic acid {1-(S)-[2-(3-carbamoyl-phenylamino)-1-(S)-methyl-ethylcarbamoyl]-2-cyclohexyl-ethyl}-amide]	> 7.00
Cc1ccc(C(C)C(=O)N[C@@H](CC2CCCCC2)C(=O)NCCN2CCc3cc(F)ccc32)cc1 (stereo partly drawn) [Compound 60, N-{2-cyclohexyl-1-(S)-[2-(5-fluoro-2,3-dihydro-indol-1-yl)-ethylcarbamoyl]-ethyl}-2-p-tolyl-propionamide]	> 7.00
Cn1cnc(C(=O)N[C@@H](CC2CCCCC2)C(=O)NCCN2CCc3cc(F)ccc32)c1 [Compound 63, 1-Methyl-1H-imidazole-4-carboxylic acid (S)-{2-cyclohexyl-1-[2-(5-fluoro-2,3-dihydro-indol-1-yl)-ethylcarbamoyl]-ethyl}-amide]	> 6.00
COc1cccc(C(=O)N[C@@H](CC(C)(C)C)C(=O)N[C@@H](COCc2ccccc2)CN2CCc3cc(F)ccc32)c1 [Compound 155, N-{1-(S)-[1-(R)-Benzyloxymethyl-2-(5-fluoro-2,3-dihydro-indol-1-yl)-ethylcarbamoyl]-3,3-dimethyl-butyl}-3-methoxy-benzamide]	> 7.00
COc1cccc(C(=O)N[C@@H](CC2CCCCC2)C(=O)N[C@@H](CC(=O)OCc2ccccc2)CN2CCc3cc(F)ccc32)c1 [Compound 161, 3-(S)-[3-Cyclohexyl-2-(S)-(3-methoxy-benzoylamino)-propionylamino]-4-(5-fluoro-2,3-dihydro-indol-1-yl)-butyric acid benzyl ester]	> 7.00
Cc1cccc(C(=O)N[C@@H](CC(C)C)C(=O)N[C@@H](CCNC(N)=O)CN2CCc3cc(F)ccc32)c1 [Compound 45, (S,S)-N-{1-[1-(5-Fluoro-2,3-dihydro-indol-1-ylmethyl)-3-ureido-propylcarbamoyl]-3-methyl-butyl}-3-methyl-benzamide]	> 6.00
Cc1cccc(C(=O)N[C@@H](CC(C)C)C(=O)N[C@@H](CCC(=O)OCc2ccccc2)CN2CCc3cc(F)ccc32)c1 [Compound 42, (S,S)-5-(5-Fluoro-2,3-dihydro-indol-1-yl)-4-[4-methyl-2-(3-methyl-benzoylamino)-pentanoylamino]-pentanoic acid benzyl ester]	> 7.00
CS(=O)(=O)c1ccc(C(=O)N[C@@H](CC2CCCCC2)C(=O)NCCN2CCc3cc(F)ccc32)s1 [Compound 72, 5-Methanesulfonyl-thiophene-2-carboxylic acid (S)-{2-cyclohexyl-1-[2-(5-fluoro-2,3-dihydro-indol-1-yl)-ethylcarbamoyl]-ethyl}-amide]	> 7.00
O=C(N[C@@H](CC1CCCCC1)C(=O)NCCN1CCc2cc(F)ccc21)C1CCN(S(=O)(=O)c2ccc(Cl)cc2)CC1 [Compound 17, 1-(4-Chloro-benzenesulfonyl)-piperidine-4-carboxylic acid (S)-{2-cyclohexyl-1-[2-(5-fluoro-2,3-dihydro-indol-1-yl)-ethylcarbamoyl]-ethyl}-amide]	> 6.00
CS(=O)(=O)c1cccc(C(=O)N[C@@H](CC2CCCCC2)C(=O)NCCN2CCc3cc(F)ccc32)c1 [Compound 80, N-(S)-{2-cyclohexyl-1-[2-(5-fluoro-2,3-dihydro-indol-1-yl)-ethylcarbarnoyl]-ethyl}-3-methanesulfonyl-benzamide]	> 7.00
COc1ccc(NC[C@H](C)NC(=O)[C@H](CC(C)(C)C)NC(=O)c2ccc(-c3cccc(F)c3)o2)cc1 [Compound 132, 5-(3-Fluoro-phenyl)-furan-2-carboxylic acid {1-(S)-[2-(4-methoxy-phenylamino)-1-(S)-methyl-ethylcarbamoyl]-3,3-dimethyl-butyl}-amide]	> 7.00
C[C@@H](CNc1ccc(S(=O)(=O)N2CCOCC2)cc1)NC(=O)[C@H](CC1CCCCC1)NC(=O)c1ccc(-c2cccc(F)c2)o1 [Compound 136, 5-(3-Fluoro-phenyl)-furan-2-carboxylic acid (2-cyclohexyl-1-(S)-{1-(S)-methyl-2-[4-(morpholine-4-sulfonyl)-phenylamino]-ethylcarbamoyl}-ethyl)-amide]	> 6.00
O=C(N[C@@H](CC1CCCCC1)C(=O)NCCN1CCc2cc(F)ccc21)C1CC(=O)N(Cc2ccccc2)C1 (stereo partly drawn) [Compound 65, 1-Benzyl-5-oxo-pyrrolidine-3-carboxylic acid (S)-{2-cyclohexyl-1-[2-(5-fluoro-2,3-dihydro-indol-1-yl)-ethylcarbamoyl]-ethyl}-amide]	> 6.00
O=C(N[C@@H](CC1CCCCC1)C(=O)NCCN1CCc2cc(F)ccc21)C1CCN(c2ccc(Cl)nn2)CC1 [Compound 56, 1-(6-Chloro-pyridazin-3-yl)-piperidine-4-carboxylic acid (S)-{2-cyclohexyl-1-[2-(5-fluoro-2,3-dihydro-indol-1-yl)-ethylcarbamoyl]-ethyl}-amide]	> 6.00

Next, values leading:

pKi	Compound
> 6.00	O=C(NCCN1CCc2cc(F)ccc21)[C@H](CC1CCCCC1)NS(=O)(=O)c1cc(Cl)c(Cl)s1 [Compound 258, (S)-3-Cyclohexyl-2-(4,5-dichloro-thiophene-2-sulfonylamino)-N-[2-(5-fluoro-2,3-dihydro-indol-1-yl)-ethyl]-propionamide]
> 7.00	C[C@@H](CNc1ccc(OC(F)(F)F)cc1)NC(=O)[C@H](CC1CCCCC1)NC(=O)O[C@H]1CCOC1 [Compound 189, {2-Cyclohexyl-1-(S)-[1-(S)-methyl-2-(4-trifluoromethoxy-phenylamino)-ethylcarbamoyl]-ethyl}-carbamic acid tetrahydrofuran-3-(S)-yl ester]
> 5.00	O=C(Nc1ccc(-c2ccccc2)s1)N[C@@H](CC1CCCCC1)C(=O)NCCN1CCc2cc(F)ccc21 [Compound 219, (S)-3-Cyclohexyl-N-[2-(5-fluoro-2,3-dihydro-indol-1-yl)-ethyl]-2-[3-(5-phenyl-thiophen-2-yl)-ureido]-propionamide]
> 7.00	C[C@@H](CN1CCc2cc(F)ccc21)NC(=O)[C@H](CC(C)(C)C)NC(=O)OCc1ccccc1 [Compound 176, {1-(S)-[2-(5-Fluoro-2,3-dihydro-indol-1-yl)-1-(S)-methyl-ethylcarbamoyl]-3,3-dimethyl-butyl}-carbamic acid benzyl ester]
> 7.00	C[C@@H](CNc1ccc(OC(F)(F)F)cc1)NC(=O)[C@H](CC1CCCC1)NC(=O)OC1CCOCC1 [Compound 190, (S,S)-{2-Cyclopentyl-1-[1-methyl-2-(4-trifluoromethoxy-phenylamino)-ethylcarbamoyl]-ethyl}-carbamic acid tetrahydropyran-4-yl ester]
> 6.00	Cc1cccc(C(=O)N[C@@H](CCC2CCCCC2)C(=O)NCCN2CCc3cc(F)ccc32)c1 [Compound 204, N-((S)-1-(2-(5-fluoroindolin-1-yl)ethylcarbamoyl)-3-cyclohexylpropyl)-3-methylbenzamide]
> 6.00	O=C(N[C@@H](Cc1ccc(Cl)cc1)C(=O)NCCN1CCc2cc(F)ccc21)c1ccc(-c2cccc(C(F)(F)F)c2)o1 [Compound 198, N-((S)-1-(2-(5-fluoroindolin-1-yl)ethylcarbamoyl)-2-(4-chlorophenyl)ethyl)-5-(3-(trifluoromethyl)phenyl)furan-2-carboxamide]
> 6.00	C[C@@H](CNc1cccc(-c2nnn[nH]2)c1)NC(=O)[C@H](CC1CCCCC1)NC(=O)OCc1ccccc1 [Compound 180, (2-Cyclohexyl-1-(S)-{1-(S)-methyl-2-[3-(1H-tetrazol-5-yl)-phenylamino]-ethylcarbamoyl}-ethyl)-carbamic acid benzyl ester]
> 7.00	C[C@@H](CNc1ccc(OC(F)(F)F)cc1)NC(=O)[C@H](CC1CCCCC1)NS(=O)(=O)c1cccc(OC(F)(F)F)c1 [Compound 182, (S,S)-3-Cyclohexyl-N-[1-methyl-2-(4-trifluoromethoxy-phenylamino)-ethyl]-2-(3-trifluoromethoxy-benzenesulfonylamino)-propionamide]
> 6.00	C[C@@H](CN1c2ccc(F)cc2CC1(C)C)NC(=O)[C@H](CC1CCCCC1)NC(=O)[C@H]1CCCO1 [Compound 274, Tetrahydrofuran-2-(R)-carboxylic acid {2-cyclohexyl-1-(S)-[2-(5-fluoro-2,2-dimethyl-2,3-dihydro-indol-1-yl)-1-(S)-methyl-ethylcarbamoyl]-ethyl}-amide]
> 6.00	Cc1cccc(C(=O)NC(C(=O)NCCN2CCc3cc(F)ccc32)c2ccc(Cl)cc2Cl)c1 (racemic) [Compound 213, (R,S)-N-((2-(5-fluoroindolin-1-yl)ethylcarbamoyl)(2,4-dichlorophenyl)methyl)-3-methylbenzamide]
> 7.00	COc1ccc(Oc2ccc(S(=O)(=O)N[C@@H](CC3CCCCC3)C(=O)NCCN3CCc4cc(F)ccc43)cc2)cc1 [Compound 244, (S)-3-Cyclohexyl-N-[2-(5-fluoro-2,3-dihydro-indol-1-yl)-ethyl]-2-[4-(4-methoxy-phenoxy)-benzenesulfonylamino]-propionamide]
